The source of these data is article PMC10296995, “Phospholipid Encapsulation of an Anti-Fibrotic Endopeptide to Enhance Cellular Uptake and Myocardial Retention” (Cells, 2023).

Structures are written as SMILES. Where a SMILES comes first, the peptide text is derived from it.

For series [1], the system named is primary mouse cardiac fibroblasts. As to the kind of experiment: Cellular uptake by flow cytometry, cardiac fibroblasts. In kind it is cell-based. Particulars: FITC-labeled peptide 0.24 µg/mL, 4 h, mean ± SD, n = 4. Here is the method:
Cellular uptake of L-Ac-SDKP was assessed in mouse cardiac fibroblasts and macrophages. Briefly, cultured macrophages (RAW 264.7 cells, ATCC) and primary mouse cardiac fibroblasts were incubated with L-Ac-SDKP or free peptides (Ac-SDKP) at a concentration of 0.24 µg/mL. For the intracellular distribution assay, cells were cultured on sterile coverslips, incubated with Ac-SDKP or L-Ac-SDKP for 4 h, fixed with 4% paraformaldehyde, mounted, and imaged using a fluorescence microscope (Zeiss LSM 800 laser scanning microscope) at ×400 magnification. For quantification of the peptide uptake, cells were detached and examined with a BD Accuri C6-Plus flow cytometer and further analyzed by FCS Express 6-De Novo software, […].

For series [2], the system named is human cardiac fibroblasts. As to the kind of experiment: MTT cell viability assay, cardiac fibroblasts. In kind it is cell-based. Conditions: 0.24 µg/mL, 24 h, n = 7-8. On the procedure:
To access cell viability and proliferation in response to the liposome-peptide, Thiazolyl Blue Tetrazolium Bromide (MTT; Sigma-Aldrich, M2128) assay was performed. Briefly, human cardiac fibroblasts (Lifeline Cell Technology, San Diego, CA, USA #FC-0060) and RAW macrophages were plated into 96-well plates at a density of 8000–10,000 cells/well. After 24 h, cells were serum-starved overnight, followed by incubation in empty liposomes and PBS (L-PBS), L-Ac-SDKP (0.24 µg/mL), or Ac-SDKP (0.24 µg/mL) for an additional 24 h. After this, the media were replaced, and the cells were incubated in the MTT substrate for 3.5 h at 37 °C. The yellow-orange colored product, a stable soluble formazan, was quantified at 450 nm using a microplate reader. Relative viability was calculated in relation to the cells treated with culture media alone as a control.

For series [3] the following is noted: rapid breakdown by angiotensin-converting enzymes; cited from earlier work. An excerpt:
(a) Schematic representation of free Ac-SDKP, a liposome (a lipid bilayer nanoparticle), and L-Ac-SDKP (Ac-SDKP inside the liposome). (b,c) Representative graphs of liposome size distribution and zeta potential, respectively, by nanoparticle tracking analysis. Comparative data for empty liposome (L-PBS) and L-Ac-SDKP for (d) size, (e) polydispersity, and (f) zeta potential. (g), Ac-SDKP concentration in the liposomal formulations (L-PBS vs. L-Ac-SDKP). Cryo-TEM images of L-Ac-SDKP (h) and empty liposome (L-PBS) (i) and a comparative data for size (j). Scale ...

On to `CC(=O)N[C@@H](CO)C(=O)N[C@@H](CC(=O)O)C(=O)N[C@@H](CCCCN)C(=O)N1CCC[C@H]1C(=O)O` [Ac-SDKP, N-acetyl-ser-asp-lys-pro] (Ac-SDKP-OH), for which the “percentage of FITC-positive cardiac fibroblasts (uptake)” value in series [1] is given as 8.5% ± 2.96. Further, the “percent cell viability, cardiac fibroblasts” value in series [2] is “did not affect percent cell viability”. For the same compound, the plasma half-life in series [3] is listed as 4.5 min.
